Measurements published in patent EP1171141B1, “MEDICAMENT FOR INHIBITING THE NF-kB TRANSCRIPTION FACTOR” (Max Zeller Söhne AG, priority 1999, dated 2000).
pIC50: −log10 of the molar value.

Key:
Assay type in all cases: cell-based
NF-κB = NF-κB inhibition of test compounds, NF-κB binding to DNA by EMSA (Jurkat T cells and cell extracts); conditions: Jurkat T cells
Excerpt: Bestimmt wurde dabei die in-vivo und die in-vitro NF-κB Bindung an DNA durch Messung der elektrophoretischen Mobilitätsverschiebung.
Die in vivo Bindung wurde mit Jurkat T-Zellen durchgeführt. Die Zellen wurden während einer Stunde mit verschiedenen Konzentrationen der verschiedenen Extrakte inkubiert und anschliessend mit TNF-α während einer Stunde stimuliert. Total-Protein-Extrakte der Zellen wurden gewonnen und in einem Assay auf elektrophoretische Mobilitätsverschiebung (electrophoretic mobility shift assay, EMSA) auf NF-κB-bindende Aktivität geprüft.
Die in vitro Bindung wurde ebenfalls mit Jurkat T-Zellen geprüft. Zellextrakle von stimulierten wie unstimulierten Zellen wurden gewonnen. Gleiche Proteinmengen (10-20 µg) wurden 2 Stunden mit Konzentrationsreihen der zu testenden Verbindungen inkubiert und schliesslich auf elektrophoretische Mobilitätsverschiebung (EMSA) analysiert.

COX-1 = biological target: T1, COX-1 (Homo sapiens, UniProt P23219); assay: COX-1 inhibition in HEL cells (Tromboxan B2 by ELISA)
T1 construct: Die Messung der COX1 Hemmung erfolgte in HEL-Zellen nach der Methode von Berg et al; endogenous in cells; host or cells: HEL cells
Experimental: (§1) In einer Variante wurden Testsubstanz und LPS zeitgleich eingesetzt. Die Messung der COX1 Hemmung erfolgte in HEL-Zellen nach der Methode von Berg et al., J. Pharmacol. Toxicol. Methods 37, 179-186 (1997). Dabei wurden HEL Zellen mit unterschiedlichen Konzentrationen der Testsubstanzen während 30 min inkubiert, anschliessend Arachidonsäure zugesetzt (Endkonzentration 30 µM), während 15 Min. inkubiert und das gebildete Tromboxan B2 mittels ELISA gemessen.

COX-2 = biological target: T2, COX-2 (Homo sapiens, UniProt P35354); assay: cell-based
T2 construct: Dazu wurden Mono Mac 6 Zellen mit unterschiedlichen Konzentrationen der Testsubstanzen während 30 min inkubiert; endogenous in cells; host or cells: Mono Mac 6 cells, LPS-stimulated
T2 sequence (P35354 18-604): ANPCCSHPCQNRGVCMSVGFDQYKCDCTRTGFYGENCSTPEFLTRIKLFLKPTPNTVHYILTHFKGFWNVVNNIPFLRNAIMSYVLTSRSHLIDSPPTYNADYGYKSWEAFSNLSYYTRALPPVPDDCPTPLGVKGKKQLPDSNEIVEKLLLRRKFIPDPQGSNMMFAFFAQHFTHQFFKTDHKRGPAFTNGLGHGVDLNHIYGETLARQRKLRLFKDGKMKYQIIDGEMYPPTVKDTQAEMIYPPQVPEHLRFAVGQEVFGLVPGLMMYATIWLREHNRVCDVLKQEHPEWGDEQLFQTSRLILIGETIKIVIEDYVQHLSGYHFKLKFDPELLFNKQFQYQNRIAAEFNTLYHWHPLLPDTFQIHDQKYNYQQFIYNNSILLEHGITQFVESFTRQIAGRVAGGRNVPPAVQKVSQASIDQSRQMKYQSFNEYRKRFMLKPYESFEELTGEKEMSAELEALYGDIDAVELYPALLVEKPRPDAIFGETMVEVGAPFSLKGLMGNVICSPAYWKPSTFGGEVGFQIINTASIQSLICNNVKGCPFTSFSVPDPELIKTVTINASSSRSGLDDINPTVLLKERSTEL
Experimental: Zur Bestimmung der COX-2-Hemmwirkung wurde allgemein nach der Methode von Berg et al., J. Pharmacol. Toxicol.
Dazu wurden Mono Mac 6 Zellen mit unterschiedlichen Konzentrationen der Testsubstanzen während 30 min inkubiert. Anschliessend wurde Lipopolysaccharid (LPS, 100 ng/ml) zupipettiert und nochmals sechs Stunden inkubiert. Anschliessend wurde Arachidonsäure zugegeben (Endkonzentration 30 µM), während 15 Min. inkubiert und das gebildete Keto-PGF1α mittels ELISA (Enzyme Linked Immuno Sorbent Assay) bestimmt.
as §1, with “Methods 37, 179-186 (1997).” left out, “gemessen. […]” for “gemessen.”

T1 sequence (P23219 24-599): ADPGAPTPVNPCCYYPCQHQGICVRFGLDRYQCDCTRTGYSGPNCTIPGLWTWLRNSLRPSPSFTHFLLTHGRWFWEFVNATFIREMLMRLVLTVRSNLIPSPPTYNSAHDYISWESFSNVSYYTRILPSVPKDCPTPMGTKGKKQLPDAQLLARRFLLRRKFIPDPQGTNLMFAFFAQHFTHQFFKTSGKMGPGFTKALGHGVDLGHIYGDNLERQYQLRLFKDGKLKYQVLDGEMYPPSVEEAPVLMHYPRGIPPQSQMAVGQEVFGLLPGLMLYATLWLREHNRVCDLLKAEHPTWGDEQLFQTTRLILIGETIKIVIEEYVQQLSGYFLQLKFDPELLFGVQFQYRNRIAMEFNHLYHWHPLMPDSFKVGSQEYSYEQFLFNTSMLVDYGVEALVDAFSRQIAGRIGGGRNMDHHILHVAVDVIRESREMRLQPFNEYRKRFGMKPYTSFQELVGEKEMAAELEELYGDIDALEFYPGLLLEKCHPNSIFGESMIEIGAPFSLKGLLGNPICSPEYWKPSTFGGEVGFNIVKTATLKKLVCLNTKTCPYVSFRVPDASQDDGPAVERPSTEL

Structure (SMILES) | NF-κB: Grenzkonzentration, bei der eben noch ein Hemmeffekt im EMSA feststellbar ist (NF-κB) | pIC50 (COX-1) | pIC50 (COX-2) | präferentielle Hemmung der induzierbaren COX-2 (COX-2; COX-2 versus COX-1, statement on Table 2)
Nc1ccc2nc3n(c(=O)c2c1)-c1ccc(F)cc1C3=O [Verbindung 20] | 5 µM/Liter | 5.30 | 6.30 | 
CN(CCO)c1ccc2c(=O)n3c(nc2c1)C(=O)c1cc(OC(F)(F)F)ccc1-3 [Verbindung 110] | 5 µM/Liter | 5.70 | 6.30 | 
O=C1c2ccccc2-n2c1nc1ccc(Cl)cc1c2=O [Verbindung 5] | 50 µM/Liter | 5.00 | 5.70 | 
O=C1c2ccccc2-n2c1nc1ccccc1c2=O [Verbindung 1, Indolo[2,1-b]chinazolin-6,12-dion] |  | 5.70 |  | 
CC1CN(c2cc3c(cc2F)C(=O)c2nc4ccccc4c(=O)n2-3)CCN1C(=O)OC(C)(C)C (centres unmarked) [Verbindung 42] | >100 µM/Liter | < 4.30 | < 4.30 | 
O=C1c2cc(Cl)ccc2-n2c1nc1cc(N3CCOCC3)ccc1c2=O [Verbindung 86] | 0,5 µM/Liter | 5.30 | 8.00 | besonders deutliche präferentielle Hemmung der induzierbaren COX-2
CN1CCN(c2ccc3c(=O)n4c(nc3c2)C(=O)c2cc(F)ccc2-4)CC1 [Verbindung 32] | 10 µM/Liter | 6.00 | 6.00 | 
CCOC(=O)c1ccc2c(c1)C(=O)c1nc3ccccc3c(=O)n1-2 [Verbindung 37] | >100 µM/Liter | < 4.30 | < 4.30 | 
Cc1cc(C)c2nc3n(c(=O)c2c1)-c1ccc(F)cc1C3=O [Verbindung 24] | >100 µM/Liter | < 4.30 | < 4.30 | 
CCCCCCCCS(=O)(=O)c1ccc2c(c1)C(=O)c1nc3c(OC)cccc3c(=O)n1-2 [Verbindung 69] | >100 µM/Liter | < 4.30 | < 4.30 | 
O=C1c2cc(Cl)ccc2-n2c1nc1ccccc1c2=O [Verbindung 10] | 5 µM/Liter | 6.00 | 6.30 | 
CN(CC(=O)O)c1ccc2c(=O)n3c(nc2c1)C(=O)c1cc(Cl)ccc1-3 [Verbindung 99] | 1 µM/Liter | 5.30 | 6.30 | 
